Tests used:
[1] = target: T1, human PRMT1 (Homo sapiens, UniProt Q99873); test: PRMT1 Biochemical Assay (3H-SAM Flashplate, peptide substrate); details: single experiment or average of multiple experiments
T1 construct: GST-tagged PRMT1; made in house; host or cells: High Five insect cells (baculovirus)
Description: (§1) S-adenosylmethionine (SAM), S-adenosylhomocysteine (SAH), bicine, Tween20, dimethylsulfoxide (DMSO), bovine skin gelatin (BSG), and Tris(2-carboxyethyl)phosphine hydrochloride solution (TCEP) were purchased from Sigma-Aldrich at the highest level of purity possible. ^3H-SAM was purchase from American Radiolabeled Chemicals with a specific activity of 80 Ci/mmol. 384-well streptavidin Flashplates were purchased from PerkinElmer.
Recombinant baculovirus were generated according to Bac-to-Bac kit instructions (Life Technologies). […] Infections were carried out at 27° C. for 48 hours, harvested by centrifugation, and stored at −80° C. for purification.
GST-tagged PRMT1 was eluted with 50 mM Tris, 2 mM glutathione, pH 7.8, dialysed in buffer A and concentrated to 1 mg/mL.
General Procedure for PRMT1 Enzyme Assays on Peptide Substrates.
(§2) The assays were all performed in a buffer consisting of 20 mM Bicine (pH=7.6), 1 mM TCEP, 0.005% BSG, and 0.002% Tween 20, prepared on the day of use. […] DMSO (1 ul) was added to Columns 11, 12, 23, 24, rows A-H for the maximum signal control and 1 ul of SAH, a known product and inhibitor of PRMT1, was added to columns 11, 12, 23, 24, rows I-P for the minimum signal control. A cocktail (40 ul) containing the PRMT1 enzyme was added by Multidrop Combi (Thermo-Fisher). The compounds were allowed to incubate with PRMT1 for 30 min at room temperature, then a cocktail (10 ul) containing SAM and peptide was added to initiate the reaction (final volume=51 ul). […] The assays were stopped by the addition of non-radiolabeled SAM (10 ul) to a final concentration of 300 uM, which dilutes the ^3H-SAM to a level where its incorporation into the peptide substrate is no longer detectable. 50 ul of the reaction in the 384-well polypropylene plate was then transferred to a 384-well Flashplate and the biotinylated peptides were allowed to bind to the streptavidin surface for at least 1 hour before being washed once with 0.1% Tween20 in a Biotek ELx405 plate washer. The plates were then read in a PerkinElmer TopCount plate reader to measure the quantity of ^3H-labeled peptide bound to the Flashplate surface, measured as disintegrations per minute (dpm) or alternatively, referred to as counts per minute (cpm).
(§3) Where dpm=disintegrations per minute, cmpd=signal in assay well, and min and max are the respective minimum and maximum signal controls.
(§4) Where top and bottom are the normally allowed to float, but may be fixed at 100 or 0 respectively in a 3-parameter fit. The Hill Coefficient normally allowed to float but may also be fixed at 1 in a 3-parameter fit. Y is the % inhibition and X is the compound concentration.

[2] = target: T2, human PRMT6 (Homo sapiens, UniProt Q96LA8); test: PRMT6 Biochemical Assay (3H-SAM Flashplate, peptide substrate); details: Biochemical IC50 PRMT6, single experiment or average of multiple experiments
T2 construct: Flag-PRMT6-His; made in house; host or cells: HEK 293F cells (BacMam baculovirus)
Description: as §1, with “(BSG), sodium butyrate” for “(BSG),”
Peptide representative of human histone H4 residues 36-50 was synthesized with an N-terminal linker-affinity tag motif and a C-terminal amide cap by 21st Century Biochemicals.
The amplified gene was subcloned into pFastBacMam (Viva Biotech).
Recombinant baculovirus were generated according to Bac-to-Bac kit instructions (Life Technologies). […] Infections were carried out at 37° C. for 48 hours, harvested by centrifugation, and stored at −80° C. for purification.
Column was washed with 20 mM imidazole in the same buffer and Flag-PRMT6-His was eluted with 150 mM imidazole. […] Flag-PRMT6-His was eluted with 200 ug/ml FLAG peptide in the same buffer. Pooled fractions were dialysed in 20 mM Tris, 150 mM NaCl, 10% glycerol and 5 mM β-mercaptoethanol, pH 7.8.
General Procedure for PRMT6 Enzyme Assays on Peptide Substrates.
as §2, with “PRMT6,” for “PRMT1,”, “PRMT6” for “PRMT1”, “400” for “300”
as §3, §4

[3] = target: human PRMT8 (Homo sapiens, UniProt Q9NR22); test: PRMT8 Biochemical Assay (3H-SAM Flashplate, peptide substrate); details: single experiment or average of multiple experiments
Description: as §1, with “(BSG), isopropyl-β-D-thiogalactopyranoside (IPTG),” for “(BSG),”
Peptide representative of human histone H4 residues 31-45 was synthesized with an N-terminal linker-affinity tag motif and a C-terminal amide cap by 21st Century Biochemicals.
E. coli (BL21(DE3) Gold, Stratagene) made competent by the CaCl2 method were transformed with the PRMT8 construct and ampicillin selection. Protein over-expression was accomplished by growing the PRMT8 expressing E. coli clone and inducing expression with 0.3 mM IPTG at 16° C. The culture was grown for 12 hours, harvested by centrifugation, and stored at −80° C. for purification.
GST-tagged PRMT8 was eluted with 50 mM Tris, 2 mM glutathione, pH 7.8. Pooled fractions were cleaved by thrombin (10 U) and dialysed in buffer A. GST was removed by reloading the cleaved protein sample onto glutathione sepharose column and PRMT8 was collected in the flow-through fractions. PRMT8 was purified further by ceramic hydroxyapatite chromatography. The column was washed with 50 mM phosphate buffer, 100 mM NaCl, 5% glycerol, 5 mM β-mercaptoethanol, pH 7.8 and PRMT8 was eluted by 100 mM phosphate in the same buffer. Protein was concentrated and buffer was exchanged to 50 mM Tris, 300 mM NaCl, 10% glycerol, 5 mM β-mercaptoethanol, pH 7.8 by ultrafiltration.
General Procedure for PRMT8 Enzyme Assays on Peptide Substrates.
as §2, with “of PRMT8,” for “of PRMT1,”, “the PRMT8” for “the PRMT1”, “with PRMT8” for “with PRMT1”, “containing ^3H-SAM” for “containing SAM”, “of 400” for “of 300”
as §3, §4

T2 sequence (Q96LA8 with tags, fused parts or gaps): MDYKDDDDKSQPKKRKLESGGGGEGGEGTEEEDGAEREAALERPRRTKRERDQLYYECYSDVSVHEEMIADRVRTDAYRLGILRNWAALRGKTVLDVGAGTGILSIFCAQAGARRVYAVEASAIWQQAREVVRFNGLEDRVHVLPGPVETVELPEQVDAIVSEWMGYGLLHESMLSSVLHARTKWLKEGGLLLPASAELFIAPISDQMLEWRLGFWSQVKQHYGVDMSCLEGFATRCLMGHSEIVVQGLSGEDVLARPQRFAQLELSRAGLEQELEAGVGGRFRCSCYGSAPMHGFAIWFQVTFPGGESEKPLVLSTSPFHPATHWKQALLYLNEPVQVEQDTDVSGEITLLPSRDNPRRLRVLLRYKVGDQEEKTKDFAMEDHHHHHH
T1 sequence (Q99873 with tags, fused parts or gaps): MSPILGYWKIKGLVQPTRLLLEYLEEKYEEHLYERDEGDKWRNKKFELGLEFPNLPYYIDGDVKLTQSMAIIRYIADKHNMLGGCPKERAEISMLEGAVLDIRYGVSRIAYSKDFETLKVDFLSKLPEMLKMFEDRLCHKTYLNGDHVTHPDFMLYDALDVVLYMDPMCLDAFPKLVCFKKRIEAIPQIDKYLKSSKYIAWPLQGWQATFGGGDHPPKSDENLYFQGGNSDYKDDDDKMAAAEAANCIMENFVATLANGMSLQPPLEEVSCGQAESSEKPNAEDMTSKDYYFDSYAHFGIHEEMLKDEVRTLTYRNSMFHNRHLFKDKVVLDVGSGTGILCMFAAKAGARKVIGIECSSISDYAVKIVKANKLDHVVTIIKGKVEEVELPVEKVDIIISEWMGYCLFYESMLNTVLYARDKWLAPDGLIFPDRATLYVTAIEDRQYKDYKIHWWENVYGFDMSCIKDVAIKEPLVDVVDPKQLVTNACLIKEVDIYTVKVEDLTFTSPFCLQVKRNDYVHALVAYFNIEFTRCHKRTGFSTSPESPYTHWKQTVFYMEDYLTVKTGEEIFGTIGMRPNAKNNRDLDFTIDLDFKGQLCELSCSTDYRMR
human PRMT8, sequence (Q9NR22 whole entry): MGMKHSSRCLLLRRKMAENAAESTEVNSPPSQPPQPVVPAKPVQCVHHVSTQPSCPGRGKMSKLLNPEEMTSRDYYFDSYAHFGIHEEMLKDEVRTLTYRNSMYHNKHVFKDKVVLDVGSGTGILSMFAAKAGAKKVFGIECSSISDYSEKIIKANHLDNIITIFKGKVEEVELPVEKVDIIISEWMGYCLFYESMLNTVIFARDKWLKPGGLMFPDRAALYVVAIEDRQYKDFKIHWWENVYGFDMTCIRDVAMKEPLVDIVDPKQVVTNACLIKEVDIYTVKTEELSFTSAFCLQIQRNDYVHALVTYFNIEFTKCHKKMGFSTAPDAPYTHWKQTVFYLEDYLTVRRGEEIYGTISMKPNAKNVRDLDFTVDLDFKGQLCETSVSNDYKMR

IC50 [1] [nM]	IC50 [2] [nM]	IC50 [3] [nM]	SMILES
170	53.2	1540	CCNCCN(C)Cc1c[nH]nc1-c1ccc(F)cc1 [Compound 60]
648	20.5	5790	CC(C)CC(=O)N1CCN(c2ccc(-c3n[nH]cc3CN(C)CCN)cc2)CC1 [Compound 180]
3160	968	12800	CNCCN(C)Cc1c[nH]nc1-c1cc(Cl)ccc1OC [Compound 53]
569	182	7500	CNCCN(C)Cc1c[nH]nc1-c1cccc(OC)c1OC [Compound 54]
1490	594	8520	CN(CCN)Cc1cnn(CC(O)CO)c1-c1ccc(F)cc1 (centres unmarked) [Compound 113]
2420	260	4820	CN(CCNC1CC1)Cc1c[nH]nc1-c1ccc(C#N)cc1 [Compound 183]
	2440	22400	CNCCN(C)Cc1c[nH]nc1-c1ccccc1Oc1ccccc1 [Compound 36]
336	49.8	3110	CN(CCN)Cc1c[nH]nc1-c1cc(F)ccc1Cl [Compound 106]
700	680	6760	CNCCN(C)Cc1c[nH]nc1-c1ccccc1OC(F)(F)F [Compound 40]

Reference: US9776972B2, “Pyrazole derivatives as arginine methyltransferase inhibitors and uses thereof” (priority 2013, dated 2017)
